We go through 14 molecules from patent publication US6511978B1, “Pyrrole derivatives useful for farnesyl transferase inhibitors and their preparations” (LG Life Sciences, Ltd., priority 1999, dated 2003).

SMILES strings stand for the structures. Where only a bound is given, the exact number is not on record here.

Experiment [1] addresses T1, Ras farnesyl transferase (Homo sapiens, UniProt P49354+P49356).
T1 construct: made in house
Description: Ras farnesyl transferase enzyme inhibition, H-Ras substrate. Format: biochemical. The following applies: H-Ras substrate protein; recombinant farnesyl transferase; 30 minutes at 37° C. The source says: (§1) In the present experiment, the improved Pompliano's method (see: Pompliano et al., Biochemistry, 31, 3800, 1992) was applied. Specifically, Ras farnesyl transferase produced by genetic recombination techniques was used, and fused protein of H-Ras(H-Ras-CVLS) substituted with polybasic lysine domain at C-terminus of K-Ras (see: Korean Patent Appln. No. 97-14409) was used as a substrate after it had been purified according to the known method(see, Chung et al., Biochimica et Biophysica Acta, 1129, 278, 1992).
(§2) The enzyme reaction was performed in 50 μl of 50 mM Sodium HEPES buffer solution containing 25 mM of potassium chloride, 25 mM of magnesium chloride, 10 mM of DTT and 50 μM of zinc chloride. 1.5 μM of Ras substrate protein, 0.15 μM of tritium-farnesylpyrophosphate and 4.5 nM of farnesyl transferase were used. More specifically, in the initial step, farnesyl transferase was added to the above buffer solution, reaction was maintained for 30 minutes at 37° C. and then the reaction was stopped by adding 1 ml of ethanol solution containing 1M HCl. The formed precipitates were adsorbed to GF/B filter using Hopper harvestor(Hopper #FH 225V) for filter-binding, washed with ethanol, and then radioactivity of the dried filter was measured using LKB β counter. Enzyme titer was measured in the unsaturated state of substrate where the concentration of Ras substrate protein and farnesyl transferase have quantitative relationship. The compound according to the present invention dissolved in dimethyl sulfoxide(DMSO) was added to the reaction solution in an amount of less than 5% of the total reaction solution, and then the enzyme inhibitory activity thereof was measured. The enzyme inhibitory activity was represented by percentage of the amount of farnesyl incorporated into the Ras substrate protein in the presence of the test compound to that in the absence of the test compound. IC50 of the test compound was defined as the concentration at which 50% of the enzyme activity was inhibited. To evaluate the selective enzyme inhibitory activity of the compound according to the present invention, inhibitory activity on geranylgeranyl transferase was measured. Geranylgeranyl transferase was purified from bovine brain according to the modified Schaber's method(Schaber et al., J. Biol. Chem. 265, 14701, 1990), and substantially the same experimental procedure as that for farnesyl transferase was performed on geranylgeranyl pyrophosphate and Ras-CVIL substrate protein.

Experiment [2] concerns the target T1, Ras farnesyl transferase. The experiment is described as follows: Ras farnesyl transferase enzyme inhibition, K-Ras substrate (H-Ras fused with polybasic lysine domain of K-Ras). Format: biochemical. The following applies: K-Ras substrate (fused protein of H-Ras with polybasic lysine domain of K-Ras); recombinant farnesyl transferase.
Description: as §1, §2

For experiment [3], the target named is T2, Ras farnesyl transferase (Rattus norvegicus, UniProt Q02293+Q04631).
T2 construct: endogenous in cells; host or cells: Rat2 fibroblasts transformed with C-Harvey-Ras or with the H-Ras/K-Ras polybasic-domain fusion
The experiment is described as follows: In vivo (intracellular) Ras farnesylation inhibition in Rat2 cell line expressing C-Harvey-Ras. Format: cell-based. The following applies: Rat2 cells expressing C-Harvey-Ras; concentration inhibiting 50% of farnesyl binding; read-out: H-Ras CIC50. The method, then: (§3) In the present experiment, Rat2 cell line which expresses C-Harvey-Ras protein having transforming activity and Rat2 cell line(Korean patent application No. 97-14409) which is transformed with fused protein of H-Ras substituted with polybasic lysine domain at C-terminus of K-Ras were used. The experiment was performed by the modified Declue's method(Declue. J. E. et al., Cancer Research, 51, 712, 1991) as follows.
(§4) 3×10^5 cells of transformed Rat2 fibroblast cell line were sprayed on 60 mm cell cultivation dish and cultivated for 48 hours in a cell incubator at 37° C. and after 50% or more of density was reached, it was treated with the test compounds. The compound according to the present invention dissolved in dimethylsulfoxide(DMSO) was used. 1% concentration of dimethylsulfoxide was used in both control and test groups. After 4 hours from the treatment with the compound, methionine labeled with 150 μCi of radioactive isotope [^35S] per 1 ml of medium was added and after cultivating for 20 hours, the cells were washed with physiological saline water. The cells were lysed using 1 ml of cold cell lysis buffer solution(50 mM of Sodium HEPES buffer solution containing 5 mM of magnesium chloride, 1 mM of DTT, 1% NP 40, 1 mM of EDTA, 1 mM of PMSF, 2 μM of leupeptin, 2 μM of pepstatin A and 2 μM of antipain) and the supernatant wherein the cells were lysed was obtained by high-velocity centrifugation of 12,000 g×5 minutes. The amount of radioisotope in the supernatant was measured and standardized to obtain a quantitative result in immunoprecipitation reaction and then, Y13-259, a monoclonal antiboby specifically binding to Ras protein(see: Furth, M. E. et al., J. Virol, 43, 294, 1982) was added and reacted for 15 hours at 4° C. Protein A(combined with goat anti-murine immunoglobulin antibody)-agarose suspension was added to the solution and reacted for 1 hour at 4° C. and then, to remove the unspecific binding product, immunoprecipitates were washed with a buffer solution (50 mM Tris chloride buffer solution containing 50 mM of sodium chloride, 0.5% of sodium dioxycholate, 0.5% of NP 40 and 0.1% of SDS). The precipitates were added to a buffer solution for electrophoresis and boiled and then, electrophoresis was performed using 13.5% of SDS polyacrylamide gel. After electrophoresis, the gel was fixed and dried. Then, the gel was exposed to X-ray film, developed and printed. From the result of the experiment, intensities of band of protein combined with or without farnesyl of Ras protein was measured, and the concentration of the test compound inhibiting 50% of farnesyl binding was defined as CIC50, an in vivo Ras farnesyl transferase inhibitory activity. IC50 means the data from Experimental 1 and CIC50 means the data from Experimental 2.

The target in experiment [4] is T2, Ras farnesyl transferase. The experiment is described as follows: In vivo (intracellular) Ras farnesylation inhibition in Rat2 cell line transformed with H-Ras fused with polybasic lysine domain of K-Ras. The note with it: Rat2 cells transformed with H-Ras/K-Ras polybasic domain fused protein; concentration inhibiting 50% of farnesyl binding; read-out: K-Ras CIC50. Format: cell-based. The method, then: as §3, §4

Consider `COCCN(C)C(=O)c1cn(Cc2cncn2CCCOc2ccccc2)cc1-c1cccc2ccccc12` [Example 4, 3-[N-(2-methoxyethyl)-N-methyl]carbamoyl-4-(naphthalen-1-yl)-1-[1-(3-phenoxypropyl)-1H-imidazol-5-yl]methyl-1H-pyrrole], for which the IC50 is less than 10 nM on Ras farnesyl transferase [1], less than 10 nM on Ras farnesyl transferase [2], less than 25 nM on Ras farnesyl transferase [3] and 10000 to 100000 nM at Ras farnesyl transferase [4].

`CSc1ncc(Cn2cc(C(=O)N3CCN(C)CC3)c(-c3cccc4ccccc34)c2)n1Cc1ccc2c(c1)OCO2` [Example 18, 1-[1-(3,4-methylenedioxybenzyl)-2-methylthio-1H-imidazol-5-ylmethyl]-3-(4-methylpiperazin-1-yl)carbonyl-4-(naphthalen-1-yl)-1H-pyrrole]: the IC50 at Ras farnesyl transferase [1] was less than 3.5 nM; at Ras farnesyl transferase [2], less than 12 nM; at Ras farnesyl transferase [3], greater than 25 nM; on Ras farnesyl transferase [4], greater than 10000 nM.

As to `CCOCCCn1c(Cn2cc(C(=O)N3CCN(C)CC3)c(-c3cccc4ccccc34)c2)cnc1C` [Example 27, 1-[1-(3-ethoxypropyl)-2-methyl-1H-imidazol-5-ylmethyl]-3-(4-methylpiperazin-1-yl)carbonyl-4-(naphthalen-1-yl)-1H-pyrrole], the IC50 on Ras farnesyl transferase [1] is less than 3 nM; on Ras farnesyl transferase [2] it was greater than 20 nM; on Ras farnesyl transferase [3], less than 25 nM; on Ras farnesyl transferase [4], greater than 10000 nM.

Consider `O=[N+]([O-])c1cn(Cc2cncn2Cc2ccc(Br)cc2)cc1-c1cccc2ccccc12` [Example 38, 1-[1-(4-bromobenzyl)-1H-imidazol-5-ylmethyl]-4-(naphthalen-1-yl)-3-nitro-1H-pyrrole], for which the IC50 is less than 23 nM at Ras farnesyl transferase [1], greater than 30 nM at Ras farnesyl transferase [2], greater than 25 nM at Ras farnesyl transferase [3] and greater than 10000 nM on Ras farnesyl transferase [4].

On to `CCSCCCn1cncc1Cn1cc(C(=O)N(C)CCOC)c(-c2cccc3ccccc23)c1` [Example 8, 3-[N-(2-methoxyethyl)-N-methyl]carbamoyl-4-(naphthalen-1-yl)-1-[1-(3-thioethoxypropyl)-1H-imidazol-5-yl]methyl-1H-pyrrole], for which the IC50 was less than 10 nM at Ras farnesyl transferase [1], less than 10 nM on Ras farnesyl transferase [2], greater than 25 nM at Ras farnesyl transferase [3] and 10000 to 50000 nM at Ras farnesyl transferase [4].

Consider `CN1CCN(C(=O)c2cn(Cc3cncn3CCCOc3ccccc3)cc2-c2cccc3ccccc23)CC1` [Example 7, 3-(4-methylpiperazin-1-yl)carbonyl-4-(naphthalen-1-yl)-1-[1-(3-phenoxypropyl)-1H-imidazol-5-yl]methyl-1H-pyrrole], for which the IC50 is less than 10 nM on Ras farnesyl transferase [1], less than 10 nM at Ras farnesyl transferase [2], less than 25 nM at Ras farnesyl transferase [3] and 10000 to 50000 nM at Ras farnesyl transferase [4].

For `Cc1ncc(Cn2cc(C(=O)N3CCN(C)CC3)c(-c3cccc4ccccc34)c2)n1CCc1ccccc1` [Example 35, 1-[1-(phenethyl)-2-methyl-1H-imidazol-5-ylmethyl]-3-(4-methylpiperazin-1-yl)carbonyl-4-(naphthalen-1-yl)-1H-pyrrole], the IC50 on Ras farnesyl transferase [1] was less than 2.5 nM; at Ras farnesyl transferase [2] it was less than 5.9 nM; at Ras farnesyl transferase [3], less than 2.5 nM; on Ras farnesyl transferase [4], greater than 10000 nM.

On to `O=[N+]([O-])c1cn(Cc2cncn2CCc2ccc(F)cc2)cc1-c1cccc2ccccc12` [Example 42, 1-[1-(4-fluorophenethyl)-1H-imidazol-5-ylmethyl]-4-(naphthalen-1-yl)-3-nitro-1H-pyrrole], for which the IC50 was less than 4.15 nM on Ras farnesyl transferase [1], less than 7.5 nM at Ras farnesyl transferase [2], greater than 50 nM on Ras farnesyl transferase [3] and greater than 10000 nM at Ras farnesyl transferase [4].

Turning to `CSc1c(C(=O)N2CCN(C)CC2)c(-c2cccc3ccccc23)cn1Cc1cncn1Cc1ccc2c(c1)OCO2` [Example 19, 1-[1-(3,4-methylenedioxybenzyl)-1H-imidazol-5-ylmethyl]-3-(4-methylpiperazin-1-yl)carbonyl-2-methylthio-4-(naphthalen-1-yl)-1H-pyrrole], the IC50 on Ras farnesyl transferase [1] is less than 0.95 nM; on Ras farnesyl transferase [2], less than 2 nM; on Ras farnesyl transferase [3], less than 12.5 nM; on Ras farnesyl transferase [4] it was greater than 10000 nM.

Consider `Cc1ncn(Cc2ccc3c(c2)OCO3)c1Cn1cc(C(=O)N2CCN(C)CC2)c(-c2cccc3ccccc23)c1` [Example 16, 1-[4-methyl-1-(3,4-methylenedioxybenzyl)-1H-imidazol-5-ylmethyl]-3-(4-methylpiperazin-1-yl)carbonyl-4-(naphthalen-1-yl)-1H-pyrrole], for which the IC50 at Ras farnesyl transferase [1] is less than 1.5 nM; at Ras farnesyl transferase [2], less than 2.3 nM; at Ras farnesyl transferase [3] it was greater than 25 nM; on Ras farnesyl transferase [4], greater than 10000 nM.

Take `Cc1c(C(=O)N2CCN(C)CC2)c(-c2cccc3ccccc23)cn1Cc1cncn1Cc1ccc2c(c1)OCO2` [Example 24, 2-methyl-1-[1-(3,4-methylenedioxybenzyl)-1H-imidazol-5-ylmethyl]-3-(4-methylpiperazin-1-yl)carbonyl-4-(naphthalen-1-yl)-1H-pyrrole]: the IC50 at Ras farnesyl transferase [1] is less than 4.45 nM; at Ras farnesyl transferase [2], less than 7 nM; on Ras farnesyl transferase [3], greater than 25 nM; on Ras farnesyl transferase [4] it was less than 10000 nM.

With `COCCN(C)C(=O)c1cn(Cc2cncn2C2CCN(Cc3ccccc3)CC2)cc1-c1cccc2ccccc12` [Example 13, 1-[1-(1-benzylpiperidin-4-yl)-1H-imidazol-5-yl]methyl-3-[N-(2-methoxyethyl)-N-methyl]carbamoyl-4-(naphthalen-1-yl)-1H-pyrrole], the IC50 was less than 10 nM at Ras farnesyl transferase [1], less than 10 nM on Ras farnesyl transferase [2], less than 25 nM at Ras farnesyl transferase [3] and 10000 to 50000 nM at Ras farnesyl transferase [4].

On to `Cc1ncn(CCCOCc2ccccc2)c1Cn1cc(C(=O)N2CCN(C)CC2)c(-c2cccc3ccccc23)c1` [Example 29, 1-[1-(3-benzyloxypropyl)-4-methyl-1H-imidazol-5-ylmethyl]-3-(4-methylpiperazin-1-yl)carbonyl-4-(naphthalen-1-yl)-1H-pyrrole], for which the IC50 at Ras farnesyl transferase [1] is less than 2.45 nM; on Ras farnesyl transferase [2] it was less than 2.7 nM; on Ras farnesyl transferase [3], less than 6.25 nM; on Ras farnesyl transferase [4] it was less than 10000 nM.

For `Cn1cncc1Cn1cc(-c2cccc3ccccc23)c([N+](=O)[O-])c1` [Example 48, 1-[1-(methyl)-1H-imidazol-5-ylmethyl]-4-(naphthalen-1-yl)-3-nitro-1H-pyrrole], the IC50 on Ras farnesyl transferase [1] is greater than 30 nM; at Ras farnesyl transferase [2], greater than 30 nM; at Ras farnesyl transferase [3] it was greater than 50 nM; at Ras farnesyl transferase [4] it was greater than 10000 nM.
